Tests used:
[1] = target: OGG1 (Homo sapiens (Human), UniProt O15527); assay: In vitro OGG1 activity assay; assay type: biochemical; conditions: 800 pM OGG1 enzyme, 2 nM human APEX1, 10 nM 8-oxoA:C substrate
Method in brief: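 Read-out is fluorescein fluorescence, with compounds in DMSO added first, then enzyme and substrate. OGG1 excises its substrate base from a quenched fluorophore-labelled duplex, and surplus APEX1 cuts the resulting apurinic site. The duplex then melts and fluorescence rises in proportion to glycosylase activity.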

[2] = system: MLE12 cells; assay: Cell viability assay in MLE12 cells (resazurin); assay type: cell-based, mouse; conditions: Mus musculus, MLE12, 24 h, TNF-α 20 ng/ml, resazurin added after 24 hours culture
Method in brief: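 MLE12 cells (7500 cells/well) were seeded onto 11-point duplicate compound dose-responses, with TNF-α (final 20 ng/ml) added after 1 hour at 37° C. After 24 hours, resazurin was added for 6 hours and resorufin fluorescence read (ex544 nm/em595 nm). EC50 values were calculated by curve fitting.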

[3] = system: CCL2; assay: Mouse CCL2 assay in MLE12 cells; assay type: cell-based; conditions: Mus musculus, MLE12, 30 h, MLE12 cells; TNF-α 20 ng/ml; supernatant after 30 hours; HTRF; read-out: CCL2 (EC50)
Method in brief: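 CCL2 in supernatants was quantified by two-antibody HTRF FRET, read at 620 and 665 nm after overnight RT incubation, with IC50 derived from delta ratios. Cells were SV40-transformed mouse MLE12, treated with duplicate 6-point compound series for 1 h before 30 h TNF-α (20 ng/ml final) stimulation.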

Sequence of OGG1 (O15527 whole entry): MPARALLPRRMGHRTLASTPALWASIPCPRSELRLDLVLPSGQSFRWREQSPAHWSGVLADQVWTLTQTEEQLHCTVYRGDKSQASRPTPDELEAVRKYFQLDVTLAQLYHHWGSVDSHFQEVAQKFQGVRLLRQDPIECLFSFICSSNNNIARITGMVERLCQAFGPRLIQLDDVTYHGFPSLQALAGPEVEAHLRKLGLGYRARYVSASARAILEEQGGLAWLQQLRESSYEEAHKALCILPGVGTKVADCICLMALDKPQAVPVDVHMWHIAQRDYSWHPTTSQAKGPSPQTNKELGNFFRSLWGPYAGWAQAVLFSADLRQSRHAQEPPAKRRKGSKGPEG

## COc1cc(NC(=O)[C@H]2CC[C@@H](n3c(=O)[nH]c4c(OCCCN(C)C)cccc43)CC2)ccc1C [Example 306, Cis-4-{4-[3-(dimethylamino)propoxy]-2-oxo-2,3-dihydro-1H-1,3-benzodiazol-1-yl}-N-(3-methoxy-4-methylphenyl)cyclohexane-1-carboxamide]
[1]
  IC50: 0.00282 µM
[2]
  IC50: 7.15 µM
[3]
  EC50: 8.07 µM

## COc1cc(NC(=O)[C@H]2CC[C@@H](n3c(=O)[nH]c4c(OC5CCNCC5)cccc43)CC2)ccc1C [Example 307, Cis-N-(3-methoxy-4-methylphenyl)-4-[2-oxo-4-(piperidin-4-yloxy)-2,3-dihydro-1H-1,3-benzodiazol-1-yl]cyclohexane-1-carboxamide]
[1]
  IC50: 0.0125 µM
[2]
  IC50: 28.8 µM
[3]
  EC50: 32 µM

## COc1cc(NC(=O)[C@H]2CC[C@@H](n3c(=O)[nH]c4c(OCCN(C)C(=O)OC(C)(C)C)cccc43)CC2)ccc1C [Example 308, tert-Butyl N-methyl-N-[2-({2-oxo-1-[cis-4-[(3-methoxy-4-methylphenyl)carbamoyl]cyclohexyl]-2,3-dihydro-1H-1,3-benzodiazol-4-yl}oxy)ethyl]carbamate]
[1]
  IC50: 0.157 µM
[2]
  IC50: 0.215 µM
[3]
  EC50: 2.04 µM

## CNCCOc1cccc2c1[nH]c(=O)n2[C@H]1CC[C@@H](C(=O)Nc2ccc(C)c(OC)c2)CC1 [Example 309, Cis-N-(3-methoxy-4-methylphenyl)-4-{4-[2-(methylamino)ethoxy]-2-oxo-2,3-dihydro-1H-1,3-benzodiazol-1-yl}cyclohexane-1-carboxamide]
[1]
  IC50: 0.00326 µM
[2]
  IC50: 15.6 µM
[3]
  EC50: 27.8 µM

## COc1cc(NC(=O)[C@H]2CC[C@@H](n3c(=O)[nH]c4c(N5CCCC5)cccc43)CC2)ccc1C [Example 310, Cis-N-(3-methoxy-4-methylphenyl)-4-[2-oxo-4-(pyrrolidin-1-yl)-2,3-dihydro-1H-1,3-benzodiazol-1-yl]cyclohexane-1-carboxamide]
[1]
  IC50: 0.0516 µM
[2]
  IC50: 6.13 µM
[3]
  EC50: 13.6 µM

## COc1cc(NC(=O)[C@H]2CC[C@@H](n3c(=O)[nH]c4c(C5=CCNCC5)cccc43)CC2)ccc1C [Example 311, Cis-N-(3-methoxy-4-methylphenyl)-4-[2-oxo-4-(1,2,3,6-tetrahydropyridin-4-yl)-2,3-dihydro-1H-1,3-benzodiazol-1-yl]cyclohexane-1-carboxamide]
[1]
  IC50: 0.00449 µM
[2]
  IC50: 13.8 µM
[3]
  EC50: 14.5 µM

## COc1cc(NC(=O)[C@H]2CC[C@@H](n3c(=O)[nH]c4c(C5=CCN(C)CC5)cccc43)CC2)ccc1C [Example 312, Cis-N-(3-methoxy-4-methylphenyl)-4-[4-(1-methyl-1,2,3,6-tetrahydropyridin-4-yl)-2-oxo-2,3-dihydro-1H-1,3-benzodiazol-1-yl]cyclohexane-1-carboxamide]
[1]
  IC50: 0.00294 µM
[2]
  IC50: 11 µM
[3]
  EC50: 28.5 µM

## COc1cc(NC(=O)[C@H]2CC[C@@H](n3c(=O)[nH]c4c(N5CCC(NC(C)=O)C5)cccc43)CC2)ccc1C (stereo partly drawn) [Example 313, Cis-4-[4-(3-acetamidopyrrolidin-1-yl)-2-oxo-2,3-dihydro-1H-1,3-benzodiazol-1-yl]-N-(3-methoxy-4-methylphenyl)cyclohexane-1-carboxamide]
[1]
  IC50: 0.0213 µM
[2]
  IC50: 19.5 µM
[3]
  EC50: 35.1 µM

From US11970474B2, “Substituted benzodiazoles and use thereof in therapy” (THOMAS HELLEDAYS STIFTELSE FÖR MEDICINSK FORSKNING, priority 2018, dated 2024)
